{
  "source": "paper PMC9067983",
  "about": "“Identification of highly selective type II kinase inhibitors with chiral peptidomimetic tails” (Journal of Enzyme Inhibition and Medicinal Chemistry, 2022)",
  "assay_in_all_cases": "kinase selectivity profiling",
  "type_in_all_cases": "biochemical",
  "conditions_in_all_cases": "10µM ATP, read-out: % inhibition (relative to DMSO)",
  "key": {"SLK/STK2": {"biological_target": "T1, SLK/STK2 (Homo sapiens, UniProt Q9H2G2)", "T1 construct": "purchased Reaction Biology Corp", "method": "(§1) Full panel kinase profiling and kinase IC50 measurement were performed by using Reaction Biology Corp. (San Diego, USA)."}, "PKN2/PRK2": {"biological_target": "T2, PKN2/PRK2 (Homo sapiens, UniProt Q16513)", "T2 construct": "purchased Reaction Biology Corp", "method": "as §1"}, "CDK4/cyclin D3": {"biological_target": "T3, CDK4/cyclin D3 (Homo sapiens, UniProt P11802)", "T3 construct": "purchased Reaction Biology Corp", "method": "as §1"}, "PKAcb": {"biological_target": "T4, PKAcb (Homo sapiens, UniProt P22694)", "T4 construct": "purchased Reaction Biology Corp", "method": "as §1"}, "PKCb1": {"biological_target": "T5, PKCb1 (Homo sapiens, UniProt P05771)", "T5 construct": "purchased Reaction Biology Corp", "method": "as §1"}, "MEK5": {"biological_target": "T6, MEK5 (Homo sapiens, UniProt Q13163)", "T6 construct": "purchased Reaction Biology Corp", "method": "as §1"}, "CDK7/cyclin H": {"biological_target": "T7, CDK7/cyclin H (Homo sapiens, UniProt P50613)", "T7 construct": "purchased Reaction Biology Corp", "method": "as §1"}, "ERK7/MAPK15": {"biological_target": "T8, ERK7/MAPK15 (Homo sapiens, UniProt Q8TD08)", "T8 construct": "purchased Reaction Biology Corp", "T8 sequence (Q8TD08 whole entry)": "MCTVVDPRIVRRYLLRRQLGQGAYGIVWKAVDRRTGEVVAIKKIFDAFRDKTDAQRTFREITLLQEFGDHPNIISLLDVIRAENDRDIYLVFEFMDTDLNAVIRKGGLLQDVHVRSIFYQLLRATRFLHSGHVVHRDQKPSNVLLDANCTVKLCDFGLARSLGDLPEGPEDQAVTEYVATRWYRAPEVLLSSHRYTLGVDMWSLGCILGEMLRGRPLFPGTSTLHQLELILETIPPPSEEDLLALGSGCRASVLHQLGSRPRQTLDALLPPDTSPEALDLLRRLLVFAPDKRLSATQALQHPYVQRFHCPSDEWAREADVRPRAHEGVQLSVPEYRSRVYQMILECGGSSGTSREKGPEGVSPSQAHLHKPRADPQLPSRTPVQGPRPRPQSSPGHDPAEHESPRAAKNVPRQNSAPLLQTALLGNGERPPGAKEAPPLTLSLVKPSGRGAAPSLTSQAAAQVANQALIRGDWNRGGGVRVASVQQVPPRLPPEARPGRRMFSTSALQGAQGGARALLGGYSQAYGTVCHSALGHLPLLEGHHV", "method": "as §1"}, "TAOK3/JIK": {"biological_target": "T9, TAOK3/JIK (Homo sapiens, UniProt Q9H2K8)", "T9 construct": "purchased Reaction Biology Corp", "method": "as §1"}, "DRAK1/STK17A": {"biological_target": "T10, DRAK1/STK17A (Homo sapiens, UniProt Q9UEE5)", "T10 construct": "purchased Reaction Biology Corp", "method": "as §1"}, "PDGFRb": {"biological_target": "T11, PDGFRb (Homo sapiens, UniProt P09619)", "T11 construct": "purchased Reaction Biology Corp", "method": "as §1"}, "p38a/MAPK14": {"biological_target": "T12, p38a/MAPK14 (Homo sapiens, UniProt Q16539)", "T12 construct": "purchased Reaction Biology Corp", "method": "as §1"}, "EPHA3": {"biological_target": "T13, EPHA3 (Homo sapiens, UniProt P29320)", "T13 construct": "purchased Reaction Biology Corp", "method": "as §1"}, "FLT3": {"biological_target": "T14, FLT3 (Homo sapiens, UniProt P36888)", "T14 construct": "purchased Reaction Biology Corp", "method": "as §1"}, "PDK1/PDPK1": {"biological_target": "T15, PDK1/PDPK1 (Homo sapiens, UniProt O15530)", "T15 construct": "purchased Reaction Biology Corp", "method": "as §1"}, "TTBK1": {"biological_target": "T16, TTBK1 (Homo sapiens, UniProt Q5TCY1)", "T16 construct": "purchased Reaction Biology Corp", "T16 sequence (Q5TCY1 whole entry)": "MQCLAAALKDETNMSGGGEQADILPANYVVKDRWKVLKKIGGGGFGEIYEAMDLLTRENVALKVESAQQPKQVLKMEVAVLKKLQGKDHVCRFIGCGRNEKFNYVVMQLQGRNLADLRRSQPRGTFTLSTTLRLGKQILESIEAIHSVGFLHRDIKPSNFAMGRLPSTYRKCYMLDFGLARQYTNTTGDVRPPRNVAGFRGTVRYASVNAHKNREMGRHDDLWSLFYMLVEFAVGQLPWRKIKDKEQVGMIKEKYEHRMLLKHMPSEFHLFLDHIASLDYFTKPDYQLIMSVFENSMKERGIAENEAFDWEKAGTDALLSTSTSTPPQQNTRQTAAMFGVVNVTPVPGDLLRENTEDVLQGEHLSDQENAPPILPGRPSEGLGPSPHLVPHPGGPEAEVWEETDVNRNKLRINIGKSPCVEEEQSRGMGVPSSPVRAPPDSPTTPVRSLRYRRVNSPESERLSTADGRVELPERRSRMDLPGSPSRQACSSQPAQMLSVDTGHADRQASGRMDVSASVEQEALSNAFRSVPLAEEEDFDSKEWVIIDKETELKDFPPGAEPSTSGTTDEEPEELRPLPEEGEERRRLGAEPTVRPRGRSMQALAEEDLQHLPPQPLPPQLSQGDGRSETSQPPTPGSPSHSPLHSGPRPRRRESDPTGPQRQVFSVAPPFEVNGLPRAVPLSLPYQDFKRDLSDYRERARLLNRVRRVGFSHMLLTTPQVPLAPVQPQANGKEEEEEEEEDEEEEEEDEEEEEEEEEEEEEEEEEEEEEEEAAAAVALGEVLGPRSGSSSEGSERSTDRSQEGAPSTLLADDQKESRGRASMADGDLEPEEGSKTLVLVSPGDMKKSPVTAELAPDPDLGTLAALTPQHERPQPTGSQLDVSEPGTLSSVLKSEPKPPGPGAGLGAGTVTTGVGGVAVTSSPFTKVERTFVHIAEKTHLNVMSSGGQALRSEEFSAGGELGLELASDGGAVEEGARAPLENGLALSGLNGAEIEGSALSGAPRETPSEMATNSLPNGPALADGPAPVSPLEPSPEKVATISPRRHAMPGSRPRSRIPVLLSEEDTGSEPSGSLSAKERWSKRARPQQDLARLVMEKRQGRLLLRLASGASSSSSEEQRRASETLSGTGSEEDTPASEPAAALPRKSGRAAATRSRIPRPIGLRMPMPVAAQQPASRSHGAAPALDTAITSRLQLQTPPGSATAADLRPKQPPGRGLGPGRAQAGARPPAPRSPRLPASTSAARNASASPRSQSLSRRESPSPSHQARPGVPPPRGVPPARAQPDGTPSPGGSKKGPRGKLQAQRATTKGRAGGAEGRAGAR", "method": "as §1"}, "RAF1": {"biological_target": "T17, RAF1 (Homo sapiens, UniProt P04049)", "T17 construct": "purchased Reaction Biology Corp", "method": "as §1"}, "Aurora A": {"biological_target": "T18, Aurora A (Homo sapiens, UniProt O14965)", "T18 construct": "purchased Reaction Biology Corp", "method": "as §1"}, "STK32B/YANK2": {"biological_target": "T19, STK32B/YANK2 (Homo sapiens, UniProt Q9NY57)", "T19 construct": "purchased Reaction Biology Corp", "method": "as §1"}, "CLK1": {"biological_target": "T20, CLK1 (Homo sapiens, UniProt P49759)", "T20 construct": "purchased Reaction Biology Corp", "method": "as §1"}, "PKCG": {"biological_target": "T21, PKCG (Homo sapiens, UniProt P05129)", "T21 construct": "purchased Reaction Biology Corp", "method": "as §1"}, "CDK14/cyclin Y (PFTK1)": {"biological_target": "T22, CDK14/cyclin Y (PFTK1) (Homo sapiens, UniProt O94921)", "T22 construct": "purchased Reaction Biology Corp", "method": "as §1"}, "EPHA4": {"biological_target": "T23, EPHA4 (Homo sapiens, UniProt P54764)", "T23 construct": "purchased Reaction Biology Corp", "method": "as §1"}, "MARK4": {"biological_target": "T24, MARK4 (Homo sapiens, UniProt Q96L34)", "T24 construct": "purchased Reaction Biology Corp", "T24 sequence (Q96L34 whole entry)": "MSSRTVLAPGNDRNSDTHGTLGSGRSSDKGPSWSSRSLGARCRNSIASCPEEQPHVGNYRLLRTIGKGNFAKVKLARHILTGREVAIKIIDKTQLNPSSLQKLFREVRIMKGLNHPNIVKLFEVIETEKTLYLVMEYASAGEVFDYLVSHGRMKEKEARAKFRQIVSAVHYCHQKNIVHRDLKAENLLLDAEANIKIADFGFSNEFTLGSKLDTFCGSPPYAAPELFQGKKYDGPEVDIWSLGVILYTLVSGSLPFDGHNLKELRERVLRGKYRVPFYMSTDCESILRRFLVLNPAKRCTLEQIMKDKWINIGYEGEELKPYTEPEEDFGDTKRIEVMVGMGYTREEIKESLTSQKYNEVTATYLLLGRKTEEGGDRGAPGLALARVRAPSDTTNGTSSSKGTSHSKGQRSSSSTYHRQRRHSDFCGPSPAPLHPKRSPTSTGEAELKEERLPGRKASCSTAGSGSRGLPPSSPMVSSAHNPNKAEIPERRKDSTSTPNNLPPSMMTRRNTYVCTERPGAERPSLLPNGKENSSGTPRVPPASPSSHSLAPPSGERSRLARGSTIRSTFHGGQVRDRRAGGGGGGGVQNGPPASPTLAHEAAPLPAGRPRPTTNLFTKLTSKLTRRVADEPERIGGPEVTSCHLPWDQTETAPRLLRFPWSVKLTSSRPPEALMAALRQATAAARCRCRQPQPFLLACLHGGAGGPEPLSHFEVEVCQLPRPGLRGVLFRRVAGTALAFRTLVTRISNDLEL", "method": "as §1"}, "HIPK1": {"biological_target": "T25, HIPK1 (Homo sapiens, UniProt Q86Z02)", "T25 construct": "purchased Reaction Biology Corp", "method": "as §1"}, "CDK2/cyclin E": {"biological_target": "T26, CDK2/cyclin E (Homo sapiens, UniProt P24941)", "T26 construct": "purchased Reaction Biology Corp", "method": "as §1"}, "LIMK1": {"biological_target": "T27, LIMK1 (Homo sapiens, UniProt P53667)", "T27 construct": "purchased Reaction Biology Corp", "method": "as §1"}, "SNRK": {"biological_target": "T28, SNRK (Homo sapiens, UniProt Q9NRH2)", "T28 construct": "purchased Reaction Biology Corp", "T28 sequence (Q9NRH2 whole entry)": "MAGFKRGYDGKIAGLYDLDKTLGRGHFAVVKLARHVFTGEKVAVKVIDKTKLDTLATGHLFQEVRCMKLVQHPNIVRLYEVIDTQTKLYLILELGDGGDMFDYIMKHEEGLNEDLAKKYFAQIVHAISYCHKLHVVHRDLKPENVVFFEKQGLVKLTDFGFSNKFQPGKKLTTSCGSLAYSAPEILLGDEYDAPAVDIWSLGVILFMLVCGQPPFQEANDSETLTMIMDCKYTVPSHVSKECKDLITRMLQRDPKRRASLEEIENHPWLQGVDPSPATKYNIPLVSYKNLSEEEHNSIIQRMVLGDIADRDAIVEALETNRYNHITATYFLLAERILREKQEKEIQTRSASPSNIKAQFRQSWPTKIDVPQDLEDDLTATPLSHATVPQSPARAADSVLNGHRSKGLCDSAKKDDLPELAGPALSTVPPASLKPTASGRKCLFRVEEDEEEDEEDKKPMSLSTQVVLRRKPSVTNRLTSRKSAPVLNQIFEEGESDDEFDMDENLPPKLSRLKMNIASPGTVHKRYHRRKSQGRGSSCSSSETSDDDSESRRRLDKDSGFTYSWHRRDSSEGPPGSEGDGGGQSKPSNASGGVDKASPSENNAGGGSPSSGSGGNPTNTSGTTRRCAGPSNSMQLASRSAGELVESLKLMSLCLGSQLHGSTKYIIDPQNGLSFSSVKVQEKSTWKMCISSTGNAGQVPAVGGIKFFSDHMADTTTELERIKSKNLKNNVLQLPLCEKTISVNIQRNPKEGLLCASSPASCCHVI", "method": "as §1"}, "SRPK2": {"biological_target": "T29, SRPK2 (Homo sapiens, UniProt P78362)", "T29 construct": "purchased Reaction Biology Corp", "method": "as §1"}, "TESK2": {"biological_target": "T30, TESK2 (Homo sapiens, UniProt Q96S53)", "T30 construct": "purchased Reaction Biology Corp", "method": "as §1"}, "CTK/MATK": {"biological_target": "T31, CTK/MATK (Homo sapiens, UniProt P42679)", "T31 construct": "purchased Reaction Biology Corp", "method": "as §1"}, "PKCd": {"biological_target": "T32, PKCd (Homo sapiens, UniProt Q05655)", "T32 construct": "purchased Reaction Biology Corp", "method": "as §1"}, "NEK11": {"biological_target": "T33, NEK11 (Homo sapiens, UniProt Q8NG66)", "T33 construct": "purchased Reaction Biology Corp", "method": "as §1"}, "SGK3/SGKL": {"biological_target": "T34, SGK3/SGKL (Homo sapiens, UniProt Q96BR1)", "T34 construct": "purchased Reaction Biology Corp", "method": "as §1"}, "DLK/MAP3K12": {"biological_target": "T35, DLK/MAP3K12 (Homo sapiens, UniProt Q12852)", "T35 construct": "purchased Reaction Biology Corp", "method": "as §1"}, "CHK1": {"biological_target": "T36, CHK1 (Homo sapiens, UniProt O14757)", "T36 construct": "purchased Reaction Biology Corp", "method": "as §1"}, "FGFR3": {"biological_target": "T37, FGFR3 (Homo sapiens, UniProt P22607)", "T37 construct": "purchased Reaction Biology Corp", "method": "as §1"}, "PHKg2": {"biological_target": "T38, PHKg2 (Homo sapiens, UniProt P15735)", "T38 construct": "purchased Reaction Biology Corp", "method": "as §1"}, "PIM3": {"biological_target": "T39, PIM3 (Homo sapiens, UniProt Q86V86)", "T39 construct": "purchased Reaction Biology Corp", "method": "as §1"}, "LYN B": {"biological_target": "T40, LYN B (Homo sapiens, UniProt P07948)", "T40 construct": "purchased Reaction Biology Corp", "T40 sequence (P07948 1-491 isoform P07948-2)": "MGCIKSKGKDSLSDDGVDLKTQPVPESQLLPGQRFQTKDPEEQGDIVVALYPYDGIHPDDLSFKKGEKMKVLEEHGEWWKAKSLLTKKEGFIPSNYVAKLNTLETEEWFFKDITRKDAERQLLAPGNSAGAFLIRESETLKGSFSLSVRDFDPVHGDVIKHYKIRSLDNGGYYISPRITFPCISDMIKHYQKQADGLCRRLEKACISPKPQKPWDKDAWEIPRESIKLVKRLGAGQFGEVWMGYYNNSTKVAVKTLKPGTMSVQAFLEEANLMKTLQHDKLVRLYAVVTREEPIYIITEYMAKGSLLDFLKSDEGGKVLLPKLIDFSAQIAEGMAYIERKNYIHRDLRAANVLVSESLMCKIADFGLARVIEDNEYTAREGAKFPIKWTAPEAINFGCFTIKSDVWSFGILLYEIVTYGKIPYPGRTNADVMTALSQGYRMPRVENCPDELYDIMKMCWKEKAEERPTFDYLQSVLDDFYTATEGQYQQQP", "method": "as §1"}, "p38b/MAPK11": {"biological_target": "T41, p38b/MAPK11 (Homo sapiens, UniProt Q15759)", "T41 construct": "purchased Reaction Biology Corp", "method": "as §1"}, "RSK4": {"biological_target": "T42, RSK4 (Homo sapiens, UniProt Q9UK32)", "T42 construct": "purchased Reaction Biology Corp", "T42 sequence (Q9UK32 whole entry)": "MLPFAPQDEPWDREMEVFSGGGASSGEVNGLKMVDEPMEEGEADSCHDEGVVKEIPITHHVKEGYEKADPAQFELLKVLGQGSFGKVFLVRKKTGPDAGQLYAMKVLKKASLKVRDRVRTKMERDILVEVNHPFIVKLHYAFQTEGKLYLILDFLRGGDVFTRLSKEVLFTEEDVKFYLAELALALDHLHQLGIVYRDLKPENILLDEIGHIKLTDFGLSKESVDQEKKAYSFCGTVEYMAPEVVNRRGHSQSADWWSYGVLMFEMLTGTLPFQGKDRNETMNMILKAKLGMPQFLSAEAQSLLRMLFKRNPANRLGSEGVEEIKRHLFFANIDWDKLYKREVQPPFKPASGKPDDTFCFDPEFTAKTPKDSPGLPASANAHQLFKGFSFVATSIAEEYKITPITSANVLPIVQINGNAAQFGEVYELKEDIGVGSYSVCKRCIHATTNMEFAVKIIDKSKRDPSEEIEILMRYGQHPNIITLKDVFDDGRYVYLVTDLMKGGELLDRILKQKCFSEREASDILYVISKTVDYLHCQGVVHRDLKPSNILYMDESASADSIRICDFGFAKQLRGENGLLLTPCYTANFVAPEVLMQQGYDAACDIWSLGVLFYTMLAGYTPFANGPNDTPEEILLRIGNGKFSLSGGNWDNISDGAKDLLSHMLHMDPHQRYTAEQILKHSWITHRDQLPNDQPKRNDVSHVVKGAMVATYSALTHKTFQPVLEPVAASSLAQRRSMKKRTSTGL", "method": "as §1"}},
  "note": "Where a SMILES comes first, the peptide text is derived from it. [ ]: non-standard residue; d: D form. The star is where a group is joined. X1 = Cc1ccc(Nc2ncc3c(n2)N(C)C(=O)N(c2cc(C(=O)*)ccc2C)C3)cn1; Aib = CC(C)(N)C(=O)O",
  "data": [
    {"smiles": "Cc1ccc(Nc2ncc3c(n2)N(C)C(=O)N(c2cc(C(=O)N[C@H](C(=O)N4CCC[C@H]4C(=O)NC(C)(C)C(=O)N[C@@H](CC(C)C)C(=O)N(C)C)C(C)C)ccc2C)C3)cn1", "note": "[7a, (S)-N-(1-(((S)-1-(dimethylamino)-4-methyl-1-oxopentan-2-yl)amino)-2-methyl-1-oxopropan-2-yl)-1-((4-methyl-3-(1-methyl-7-((6-methylpyridin-3-yl)amino)-2-oxo-1,4-dihydropyrimido[4,5-d]pyrimidin-3(2H)-yl)benzoyl)-L-valyl)pyrrolidine-2-carboxamide] (X1-VP[Aib]L-NMe2)", "values": [
      {"measurement": "inhibition at 1 µM", "setting": "SLK/STK2", "value": 9, "unit": "%"},
      {"measurement": "inhibition at 1 µM", "setting": "PKN2/PRK2", "value": 0, "unit": "%"},
      {"measurement": "inhibition at 1 µM", "setting": "CDK4/cyclin D3", "value": 3, "unit": "%"},
      {"measurement": "inhibition at 1 µM", "setting": "PKAcb", "value": 3, "unit": "%"},
      {"measurement": "inhibition at 1 µM", "setting": "PKCb1", "value": 4, "unit": "%"},
      {"measurement": "inhibition at 1 µM", "setting": "MEK5", "value": 50, "unit": "%"},
      {"measurement": "inhibition at 1 µM", "setting": "CDK7/cyclin H", "value": 3, "unit": "%"},
      {"measurement": "inhibition at 1 µM", "setting": "ERK7/MAPK15", "value": 3, "unit": "%"},
      {"measurement": "inhibition at 1 µM", "setting": "TAOK3/JIK", "value": 0, "unit": "%"},
      {"measurement": "inhibition at 1 µM", "setting": "DRAK1/STK17A", "value": 0, "unit": "%"},
      {"measurement": "inhibition at 1 µM", "setting": "PDGFRb", "value": 48, "unit": "%"},
      {"measurement": "inhibition at 1 µM", "setting": "p38a/MAPK14", "value": 15, "unit": "%"},
      {"measurement": "inhibition at 1 µM", "setting": "EPHA3", "value": 25, "unit": "%"},
      {"measurement": "inhibition at 1 µM", "setting": "FLT3", "value": 18, "unit": "%"},
      {"measurement": "inhibition at 1 µM", "setting": "PDK1/PDPK1", "value": 1, "unit": "%"},
      {"measurement": "inhibition at 1 µM", "setting": "TTBK1", "value": 0, "unit": "%"},
      {"measurement": "inhibition at 1 µM", "setting": "RAF1", "value": 69, "unit": "%"},
      {"measurement": "inhibition at 1 µM", "setting": "Aurora A", "value": 0, "unit": "%"},
      {"measurement": "inhibition at 1 µM", "setting": "STK32B/YANK2", "value": 16, "unit": "%"},
      {"measurement": "inhibition at 1 µM", "setting": "CLK1", "value": 5, "unit": "%"},
      {"measurement": "inhibition at 1 µM", "setting": "PKCG", "value": 9, "unit": "%"},
      {"measurement": "inhibition at 1 µM", "setting": "CDK14/cyclin Y (PFTK1)", "value": 6, "unit": "%"},
      {"measurement": "inhibition at 1 µM", "setting": "EPHA4", "value": 29, "unit": "%"},
      {"measurement": "inhibition at 1 µM", "setting": "MARK4", "value": 0, "unit": "%"},
      {"measurement": "inhibition at 1 µM", "setting": "HIPK1", "value": 0, "unit": "%"},
      {"measurement": "inhibition at 1 µM", "setting": "CDK2/cyclin E", "value": 0, "unit": "%"},
      {"measurement": "inhibition at 1 µM", "setting": "LIMK1", "value": 51, "unit": "%"},
      {"measurement": "inhibition at 1 µM", "setting": "SNRK", "value": 9, "unit": "%"},
      {"measurement": "inhibition at 1 µM", "setting": "SRPK2", "value": 0, "unit": "%"},
      {"measurement": "inhibition at 1 µM", "setting": "TESK2", "value": 4, "unit": "%"},
      {"measurement": "inhibition at 1 µM", "setting": "CTK/MATK", "value": 10, "unit": "%"},
      {"measurement": "inhibition at 1 µM", "setting": "PKCd", "value": 0, "unit": "%"},
      {"measurement": "inhibition at 1 µM", "setting": "NEK11", "value": 1, "unit": "%"},
      {"measurement": "inhibition at 1 µM", "setting": "SGK3/SGKL", "value": 6, "unit": "%"},
      {"measurement": "inhibition at 1 µM", "setting": "DLK/MAP3K12", "value": 0, "unit": "%"},
      {"measurement": "inhibition at 1 µM", "setting": "CHK1", "value": 0, "unit": "%"},
      {"measurement": "inhibition at 1 µM", "setting": "FGFR3", "value": 0, "unit": "%"},
      {"measurement": "inhibition at 1 µM", "setting": "PHKg2", "value": 0, "unit": "%"},
      {"measurement": "inhibition at 1 µM", "setting": "PIM3", "value": 0, "unit": "%"},
      {"measurement": "inhibition at 1 µM", "setting": "LYN B", "value": 34, "unit": "%"},
      {"measurement": "inhibition at 1 µM", "setting": "p38b/MAPK11", "value": 13, "unit": "%"},
      {"measurement": "inhibition at 1 µM", "setting": "RSK4", "value": 0, "unit": "%"}
    ]}
  ]
}
